# Results: ChEMBL document CHEMBL1201862, “PubChem BioAssay data set” (2004)
# Activity calls are given as the source filed them.
# Legend:
# NADPH oxidase 1 [1] = target: T1, NADPH oxidase 1 (Homo sapiens, UniProt Q9Y5S8); type: functional, cell-based
# [2] = Luminescent dose response cell-based high throughput screening assay for inhibitors of the Janus kinase 2 mutant JAK2V617F. [Related pubchem assays: 1446 (Primary screen.), 1521 (Confirmation assay.), 1486 (Counter screen.)]; type: functional
# [3] = target: T2, RNA-binding protein pos-1 (Caenorhabditis elegans, UniProt G5EF15); experiment: inhibitors of POS-1/mex-3 RNA binding, dose response, biochemical, fluorescence polarization (AID 1964);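 further: purified POS-1 fused to maltose binding protein made in E. coli; potency of compounds blocking POS-1 binding to fluorescent RNA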
# T2 sequence (G5EF15 whole entry): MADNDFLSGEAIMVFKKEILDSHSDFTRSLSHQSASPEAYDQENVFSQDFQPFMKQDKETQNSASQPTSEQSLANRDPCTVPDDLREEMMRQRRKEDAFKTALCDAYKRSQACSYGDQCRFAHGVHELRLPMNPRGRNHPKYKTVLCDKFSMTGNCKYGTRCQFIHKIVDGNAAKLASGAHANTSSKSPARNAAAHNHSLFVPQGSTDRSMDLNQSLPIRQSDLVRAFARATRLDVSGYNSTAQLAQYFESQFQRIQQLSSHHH
# [4] = target: T3, Zinc finger protein mex-5 (Caenorhabditis elegans, UniProt Q9XUB2); experiment: MEX-5/TCR-2 RNA interaction inhibitors, dose response, biochemical, C. elegans, fluorescence polarization (AID 1960)
# T3 sequence (Q9XUB2 whole entry): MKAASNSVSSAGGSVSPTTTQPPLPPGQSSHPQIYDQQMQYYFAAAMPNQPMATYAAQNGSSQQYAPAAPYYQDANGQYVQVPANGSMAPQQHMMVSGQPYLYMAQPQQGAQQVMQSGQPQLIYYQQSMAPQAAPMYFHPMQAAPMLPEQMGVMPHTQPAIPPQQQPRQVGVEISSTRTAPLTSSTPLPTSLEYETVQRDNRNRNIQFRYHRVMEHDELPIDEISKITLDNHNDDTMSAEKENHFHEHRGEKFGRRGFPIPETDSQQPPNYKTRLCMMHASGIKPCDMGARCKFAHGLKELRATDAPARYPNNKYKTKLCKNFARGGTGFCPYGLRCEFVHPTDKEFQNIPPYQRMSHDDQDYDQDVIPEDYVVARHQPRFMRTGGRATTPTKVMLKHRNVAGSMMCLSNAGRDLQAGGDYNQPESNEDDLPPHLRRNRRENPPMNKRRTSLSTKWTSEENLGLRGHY
# [5] = target: Heat shock protein HSP 90-alpha (Homo sapiens, UniProt P07900); experiment: Luminescence-based dose response biochemical high throughput screening assay for inhibitors of the Heat Shock Protein 90 (HSP90). [Related pubchem assays: 1831 (Summary AID.), 1846 (Confirmation screen.), 1789 (Primary screen.)]
# Genome polyprotein [6] = target: Genome polyprotein (Hepatitis C virus, UniProt Q2Q167); experiment: HCV core protein dimerization inhibitors, dose response, biochemical, TR-FRET (AID 2159); parameters: species or system Hepacivirus hominis;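 further: blocks dimerization of HCV core protein measured by TR-FRET between tagged core106 pairs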
# Genome polyprotein (Hepatitis C virus, UniProt Q2Q167), sequence (Q2Q167 whole entry): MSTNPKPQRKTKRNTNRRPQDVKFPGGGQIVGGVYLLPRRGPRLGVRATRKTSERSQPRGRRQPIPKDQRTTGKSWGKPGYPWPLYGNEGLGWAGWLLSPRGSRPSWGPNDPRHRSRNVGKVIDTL
# NADPH oxidase 1 [7] = target: T1, NADPH oxidase 1; experiment: Late-stage luminescence-based cell-based dose response assay to identify inhibitors of NADPH oxidase 1 (NOX1): Purchased analogs 2.; type: functional
# [8] = yeast RAM network inhibitors, dose response, S. cerevisiae (AID 1307); type: functional
# [9] = target: Eukaryotic translation initiation factor 4E (Mus musculus, UniProt P63073); experiment: eIF4E–eIF4G protein interaction inhibitors, dose response, biochemical, TR-FRET (AID 855); type: functional;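 further: potency for disrupting eIF4E binding to eIF4GI seen as loss of FRET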
# Eukaryotic translation initiation factor 4E, sequence (P63073 whole entry): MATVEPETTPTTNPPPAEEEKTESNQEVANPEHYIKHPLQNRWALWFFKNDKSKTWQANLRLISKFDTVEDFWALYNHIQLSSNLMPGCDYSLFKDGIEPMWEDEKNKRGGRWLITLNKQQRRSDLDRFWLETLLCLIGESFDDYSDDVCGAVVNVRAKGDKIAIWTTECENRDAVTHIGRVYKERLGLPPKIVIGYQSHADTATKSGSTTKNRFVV
# Nonstructural protein 1 = Nonstructural protein 1 (Influenza A virus, UniProt Q194T2); type: functional, Influenza A virus (A/California/07/2009(H1N1))
# Nonstructural protein 1, sequence (Q194T2 whole entry): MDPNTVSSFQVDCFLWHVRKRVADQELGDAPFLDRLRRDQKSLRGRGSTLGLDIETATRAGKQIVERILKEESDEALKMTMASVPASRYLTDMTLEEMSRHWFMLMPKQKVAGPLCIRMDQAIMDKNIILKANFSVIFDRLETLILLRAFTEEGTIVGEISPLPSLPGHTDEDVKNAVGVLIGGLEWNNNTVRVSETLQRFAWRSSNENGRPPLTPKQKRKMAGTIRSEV
# Vero [10] = experiment: Vero cell cytotoxicity, cytotoxicity control for flavivirus capping enzyme inhibitors (AID 588742); type: functional; conditions: Chlorocebus sabaeus
# Genome polyprotein [11] = target: Genome polyprotein (dengue virus type 2, UniProt P29990); experiment: Dengue-2 NS5 methyltransferase inhibitors, primary screen, biochemical, confirmation dose response (AID 588689); type: functional
# Genome polyprotein (dengue virus type 2, UniProt P29990), sequence (P29990 2492-3391 limits assumed): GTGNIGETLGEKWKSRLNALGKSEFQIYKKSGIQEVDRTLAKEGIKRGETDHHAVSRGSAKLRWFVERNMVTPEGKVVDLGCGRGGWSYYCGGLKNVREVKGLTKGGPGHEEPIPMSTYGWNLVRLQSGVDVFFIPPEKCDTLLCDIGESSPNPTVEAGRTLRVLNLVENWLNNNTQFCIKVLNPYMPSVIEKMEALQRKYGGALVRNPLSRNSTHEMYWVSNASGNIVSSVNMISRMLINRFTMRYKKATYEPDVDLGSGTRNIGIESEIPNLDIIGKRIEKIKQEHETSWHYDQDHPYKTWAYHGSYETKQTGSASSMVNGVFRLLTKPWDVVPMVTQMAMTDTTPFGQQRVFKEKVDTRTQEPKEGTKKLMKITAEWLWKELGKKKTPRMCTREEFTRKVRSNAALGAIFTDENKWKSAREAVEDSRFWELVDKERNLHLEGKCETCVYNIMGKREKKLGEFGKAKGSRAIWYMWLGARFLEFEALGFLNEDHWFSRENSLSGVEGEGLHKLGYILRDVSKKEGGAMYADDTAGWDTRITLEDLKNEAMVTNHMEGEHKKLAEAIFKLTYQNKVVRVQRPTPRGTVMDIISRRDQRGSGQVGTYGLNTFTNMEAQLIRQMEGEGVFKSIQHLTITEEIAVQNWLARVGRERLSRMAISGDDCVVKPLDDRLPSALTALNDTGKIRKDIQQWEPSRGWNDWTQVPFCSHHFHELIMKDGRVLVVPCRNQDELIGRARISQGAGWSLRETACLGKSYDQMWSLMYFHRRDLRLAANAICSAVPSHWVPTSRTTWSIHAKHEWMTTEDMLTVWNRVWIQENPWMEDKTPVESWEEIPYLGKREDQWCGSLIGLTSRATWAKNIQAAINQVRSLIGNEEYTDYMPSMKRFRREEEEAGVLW
# [12] = target: T4, Histone-lysine N-methyltransferase NSD2 (Homo sapiens, UniProt O96028); type: biochemical
# T4 sequence (O96028 whole entry): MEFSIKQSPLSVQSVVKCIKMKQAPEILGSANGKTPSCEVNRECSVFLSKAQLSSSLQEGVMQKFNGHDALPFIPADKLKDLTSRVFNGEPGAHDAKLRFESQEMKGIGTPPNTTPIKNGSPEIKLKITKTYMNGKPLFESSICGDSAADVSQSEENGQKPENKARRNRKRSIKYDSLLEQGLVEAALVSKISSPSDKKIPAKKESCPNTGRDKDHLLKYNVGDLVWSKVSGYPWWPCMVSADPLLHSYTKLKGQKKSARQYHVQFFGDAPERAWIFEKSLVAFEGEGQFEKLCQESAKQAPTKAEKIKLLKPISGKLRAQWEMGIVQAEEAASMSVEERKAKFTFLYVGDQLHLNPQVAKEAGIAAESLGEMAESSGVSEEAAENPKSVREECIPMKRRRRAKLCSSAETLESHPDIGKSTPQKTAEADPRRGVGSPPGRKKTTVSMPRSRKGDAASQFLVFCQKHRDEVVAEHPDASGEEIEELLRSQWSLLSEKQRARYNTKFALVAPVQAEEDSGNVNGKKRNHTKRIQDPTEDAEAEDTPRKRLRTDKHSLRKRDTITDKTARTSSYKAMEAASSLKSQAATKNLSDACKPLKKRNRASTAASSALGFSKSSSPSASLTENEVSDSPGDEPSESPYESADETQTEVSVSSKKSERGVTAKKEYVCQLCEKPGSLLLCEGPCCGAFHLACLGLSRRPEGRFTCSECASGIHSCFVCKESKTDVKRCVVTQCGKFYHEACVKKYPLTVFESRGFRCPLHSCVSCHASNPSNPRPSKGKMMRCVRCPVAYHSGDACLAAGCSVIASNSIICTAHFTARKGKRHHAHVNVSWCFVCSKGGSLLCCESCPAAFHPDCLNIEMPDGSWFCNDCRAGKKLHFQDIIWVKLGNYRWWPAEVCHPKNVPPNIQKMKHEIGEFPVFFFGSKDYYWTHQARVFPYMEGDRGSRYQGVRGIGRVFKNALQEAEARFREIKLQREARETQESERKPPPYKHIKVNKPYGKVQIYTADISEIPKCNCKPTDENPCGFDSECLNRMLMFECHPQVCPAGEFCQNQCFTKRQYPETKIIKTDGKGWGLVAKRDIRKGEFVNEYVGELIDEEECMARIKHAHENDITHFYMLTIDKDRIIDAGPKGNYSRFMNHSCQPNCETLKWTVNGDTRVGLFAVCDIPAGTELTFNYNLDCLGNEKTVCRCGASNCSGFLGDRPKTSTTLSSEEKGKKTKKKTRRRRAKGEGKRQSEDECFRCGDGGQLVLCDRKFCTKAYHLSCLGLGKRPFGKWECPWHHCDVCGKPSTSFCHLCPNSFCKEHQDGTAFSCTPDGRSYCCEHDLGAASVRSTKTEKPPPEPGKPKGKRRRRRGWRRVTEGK
# Vero [13] = experiment: host cell cytotoxicity of antiviral hits, dose response, cytotoxicity control for West Nile virus antiviral project, secondary assay (AID 1650); type: functional; conditions: Chlorocebus sabaeus
# [14] = target: T5, Type-1 angiotensin II receptor (Homo sapiens, UniProt P30556); experiment: AT1 receptor agonists, dose response, selectivity assay for APJ receptor agonist project, cell-based, uHTS hits (AID 488865); type: functional;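 further: beta-arrestin recruitment to AT1 measured by enzyme fragment complementation luminescence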
# T5 sequence (P30556 whole entry): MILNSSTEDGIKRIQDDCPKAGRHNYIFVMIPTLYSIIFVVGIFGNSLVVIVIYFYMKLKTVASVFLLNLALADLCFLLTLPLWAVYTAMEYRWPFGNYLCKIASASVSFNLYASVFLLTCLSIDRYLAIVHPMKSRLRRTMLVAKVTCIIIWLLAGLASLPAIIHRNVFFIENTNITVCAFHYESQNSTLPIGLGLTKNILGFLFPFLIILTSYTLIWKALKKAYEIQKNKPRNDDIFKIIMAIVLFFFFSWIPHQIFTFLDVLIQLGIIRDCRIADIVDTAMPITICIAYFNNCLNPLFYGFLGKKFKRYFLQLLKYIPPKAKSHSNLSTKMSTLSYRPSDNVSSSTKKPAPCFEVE
# [15] = target: E3 ubiquitin-protein ligase Mdm2 (Homo sapiens, UniProt Q00987); experiment: enhancers of MDM2-luciferase reporter signal, concentration-effect titration, project on inhibitors of MDM2 ubiquitin ligase, cellular assay, luminescent readout, 384-well plate format (AID 1394); type: functional;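 further: MDM2 E3 inhibitors raise luminescence so EC50 is for signal enhancement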
# E3 ubiquitin-protein ligase Mdm2, sequence (Q00987 whole entry): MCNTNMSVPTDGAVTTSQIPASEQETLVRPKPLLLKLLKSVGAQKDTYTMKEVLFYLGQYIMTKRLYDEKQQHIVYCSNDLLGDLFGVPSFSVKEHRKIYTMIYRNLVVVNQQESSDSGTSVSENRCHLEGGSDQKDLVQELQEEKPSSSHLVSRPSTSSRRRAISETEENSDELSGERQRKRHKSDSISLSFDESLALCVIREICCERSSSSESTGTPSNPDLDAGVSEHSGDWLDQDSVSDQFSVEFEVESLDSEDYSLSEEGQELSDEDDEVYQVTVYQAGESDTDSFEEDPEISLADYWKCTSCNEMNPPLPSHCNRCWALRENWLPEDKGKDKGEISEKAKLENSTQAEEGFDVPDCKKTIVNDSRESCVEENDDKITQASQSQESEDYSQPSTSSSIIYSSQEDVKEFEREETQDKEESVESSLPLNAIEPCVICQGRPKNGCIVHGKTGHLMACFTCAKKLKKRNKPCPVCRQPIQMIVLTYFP
# [16] = M. tuberculosis H37Rv growth inhibitors, H37Rv strain (AID 1626); type: functional
# [17] = M. tuberculosis growth inhibition, HTS (AID 449762); type: functional
# Leucine aminopeptidase = target: T6, Leucine aminopeptidase (Plasmodium falciparum 3D7, UniProt Q8IL11); experiment: P. falciparum M17LAP inhibitors, primary screen, biochemical, fluorogenic H-Leu-NHMec substrate, 1536-well (AID 1619); type: functional
# T6 sequence (Q8IL11 whole entry): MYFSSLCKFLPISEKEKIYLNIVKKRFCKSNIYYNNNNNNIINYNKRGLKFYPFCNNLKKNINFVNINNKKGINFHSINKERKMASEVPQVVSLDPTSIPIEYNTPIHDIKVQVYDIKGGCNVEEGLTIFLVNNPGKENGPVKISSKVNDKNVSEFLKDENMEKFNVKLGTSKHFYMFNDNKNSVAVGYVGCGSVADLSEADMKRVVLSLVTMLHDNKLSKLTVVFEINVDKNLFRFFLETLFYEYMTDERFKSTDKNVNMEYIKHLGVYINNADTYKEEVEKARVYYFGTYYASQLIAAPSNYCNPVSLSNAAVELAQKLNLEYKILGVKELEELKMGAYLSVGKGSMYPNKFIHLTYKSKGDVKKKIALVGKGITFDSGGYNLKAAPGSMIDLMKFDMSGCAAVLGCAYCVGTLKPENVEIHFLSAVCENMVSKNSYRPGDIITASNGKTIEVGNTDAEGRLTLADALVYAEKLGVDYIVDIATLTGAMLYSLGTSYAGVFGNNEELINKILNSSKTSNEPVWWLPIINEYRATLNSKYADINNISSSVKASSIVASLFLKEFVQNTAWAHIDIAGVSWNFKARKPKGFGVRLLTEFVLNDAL
# Aspartyl aminopeptidase = Aspartyl aminopeptidase (Plasmodium falciparum 3D7, UniProt Q8I2J3); experiment: Counterscreen for inhibitors of M1 and M17 aminopeptidases: QFRET-based biochemical high throughput dose response assay for inhibitors of the Plasmodium falciparum M18 Aspartyl Aminopeptidase (PFM18AAP). [Related PubChem assays: 1619 (Screening assay (M17LAP inhibitors).), 1445 (Screening assay (M1AAP inhibitors).)]
# Aspartyl aminopeptidase, sequence (Q8I2J3 whole entry): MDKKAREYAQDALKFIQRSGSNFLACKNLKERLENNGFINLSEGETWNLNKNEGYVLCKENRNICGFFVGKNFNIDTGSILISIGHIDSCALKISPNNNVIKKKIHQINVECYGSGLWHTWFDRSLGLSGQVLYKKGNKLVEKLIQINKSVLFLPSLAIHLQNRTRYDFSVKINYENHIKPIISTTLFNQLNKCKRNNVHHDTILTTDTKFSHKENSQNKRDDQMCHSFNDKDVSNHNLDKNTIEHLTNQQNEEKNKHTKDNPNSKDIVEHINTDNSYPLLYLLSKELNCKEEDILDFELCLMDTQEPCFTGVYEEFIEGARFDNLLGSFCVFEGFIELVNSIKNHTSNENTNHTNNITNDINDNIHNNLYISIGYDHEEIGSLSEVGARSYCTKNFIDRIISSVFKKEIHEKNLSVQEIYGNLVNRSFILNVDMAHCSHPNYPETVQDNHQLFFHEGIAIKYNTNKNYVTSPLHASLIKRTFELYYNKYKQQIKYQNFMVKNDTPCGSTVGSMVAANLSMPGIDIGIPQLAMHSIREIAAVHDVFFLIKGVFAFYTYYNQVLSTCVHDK
# Procathepsin L = Procathepsin L (Homo sapiens, UniProt P07711); experiment: cathepsin L inhibitors, dose response, counter-screen for M1/M17 aminopeptidase inhibitor project, biochemical, QFRET, 1536-well (AID 2214)
# Procathepsin L, sequence (P07711 whole entry): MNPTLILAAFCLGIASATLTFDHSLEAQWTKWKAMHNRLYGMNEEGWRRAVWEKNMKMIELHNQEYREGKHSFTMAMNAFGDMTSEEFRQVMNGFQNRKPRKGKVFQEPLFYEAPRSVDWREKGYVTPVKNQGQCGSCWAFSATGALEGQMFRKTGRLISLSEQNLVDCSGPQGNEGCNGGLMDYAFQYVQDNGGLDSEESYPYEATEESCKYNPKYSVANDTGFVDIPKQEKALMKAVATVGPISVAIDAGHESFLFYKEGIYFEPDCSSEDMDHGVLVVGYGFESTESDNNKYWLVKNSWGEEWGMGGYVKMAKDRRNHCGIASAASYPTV
# [18] = target: T7, Probable nicotinate-nucleotide adenylyltransferase (Staphylococcus aureus (strain N315), UniProt P65502); type: functional, Staphylococcus aureus subsp. aureus N315;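 on IC50 Mean: confirmatory dose-response retesting of NadD inhibitor hits first found in an ultra-high-throughput screen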
# T7 sequence (P65502 whole entry): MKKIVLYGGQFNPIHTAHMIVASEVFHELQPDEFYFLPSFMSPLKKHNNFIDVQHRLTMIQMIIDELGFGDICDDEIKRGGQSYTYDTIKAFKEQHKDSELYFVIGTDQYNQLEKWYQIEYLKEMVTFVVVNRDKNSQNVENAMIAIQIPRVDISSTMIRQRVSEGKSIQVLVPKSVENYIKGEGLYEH
# [19] = target: T7, Probable nicotinate-nucleotide adenylyltransferase; type: functional, Staphylococcus aureus subsp. aureus N315; conditions: read-out: IC50_Mean
# T1 sequence (Q9Y5S8 whole entry): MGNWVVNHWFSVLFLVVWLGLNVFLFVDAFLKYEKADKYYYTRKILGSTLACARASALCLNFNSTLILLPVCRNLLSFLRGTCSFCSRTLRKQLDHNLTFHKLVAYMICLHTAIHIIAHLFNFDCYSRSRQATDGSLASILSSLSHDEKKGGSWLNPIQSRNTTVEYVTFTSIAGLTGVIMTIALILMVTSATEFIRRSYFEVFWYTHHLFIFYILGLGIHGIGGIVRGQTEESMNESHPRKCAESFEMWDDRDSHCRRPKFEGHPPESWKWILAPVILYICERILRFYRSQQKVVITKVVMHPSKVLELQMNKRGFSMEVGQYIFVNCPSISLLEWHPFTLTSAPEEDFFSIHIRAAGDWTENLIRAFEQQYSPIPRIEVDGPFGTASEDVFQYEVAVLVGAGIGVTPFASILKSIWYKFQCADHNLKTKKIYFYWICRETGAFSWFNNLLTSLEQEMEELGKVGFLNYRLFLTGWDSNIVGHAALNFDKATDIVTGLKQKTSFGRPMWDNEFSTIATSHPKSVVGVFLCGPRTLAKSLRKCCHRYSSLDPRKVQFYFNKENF
compound,measurement,setting,value
C(=N\Nc1ccccc1)/c1ccccc1,IC50,NADPH oxidase 1 [1],13 µM (active)
O=c1oc2ccc(Cl)cc2nc1/C=C(\O)c1ccco1,IC50,[2],1.5 µM (active)
same,EC50,[3],> 300 µM (not active)
same,EC50,[4],> 300 µM (not active)
same,IC50,[5],2.73 µM (active)
NS(=O)(=O)c1ccc(NC(=O)c2ccc(S(=O)(=O)N3CCc4ccccc43)cc2)cc1,IC50,Genome polyprotein [6],> 49.8 µM (not active)
CC(=O)Nc1ccc(CC(=O)Nc2ccc(Oc3ccc(Br)cc3)cc2)cc1,IC50,NADPH oxidase 1 [7],> 17 µM (not active)
Cc1cc(C)c(Nc2cc(S(=O)(=O)O)c(N)c3c2C(=O)c2ccccc2C3=O)c(C)c1 [ACID BLUE 129],IC50,[8],139 µM (active)
same,IC50,[9],26.1 µM (inactive)
same,IC50,Nonstructural protein 1,3.96 µM (active)
same,CC50,Vero [10],> 40 µM (active)
same,IC50,Genome polyprotein [11],21.5 µM (active)
same,AC50,[12],3.75 µM (active)
CCOC(=O)N1CCN(S(=O)(=O)c2ccc(C(=O)N(CCCN(C)C)c3nc4ccc(Cl)cc4s3)cc2)CC1,CC50,Vero [13],10.1 µM (active)
same,EC50,[14],> 100 µM (inactive)
CC(=O)c1ccc(OCC(O)Cn2nnc3ccccc32)cc1 (stereo not drawn),EC50,[15],12.7 µM (not active)
CCOC(=O)N1CCN=C1SCc1ccc(C(F)(F)F)cc1,IC50,[16],> 100 µM (active)
same,IC50,[17],> 100 µM (active)
CCn1c2ccccc2c2cc(NC(=O)CSc3nccc(O)n3)ccc21,IC50,Leucine aminopeptidase,1.41 µM (active)
same,IC50,Aspartyl aminopeptidase,> 73.5 µM (not active)
same,IC50,Procathepsin L,> 59.6 µM (not active)
same,IC50,[18],15.3 µM (active)
same,IC50,[19],42.4 µM (active)
